Consider 3 compounds from patent US7524880B2, “Crystalline form of a substituted pyrrolidine compound” (Theravance, Inc., priority 2004, dated 2009).

Counter-ions that a name gives are not always drawn.

For data set [1], the system named is MCh-induced depressor responses. As to the kind of experiment: Methacholine-induced depressor responses in conscious guinea pigs. It counts as in vivo. Conditions: conscious guinea pig, inhalation. An excerpt:
Healthy, adult, male Sprague-Dawley guinea pigs (Harlan, Indianapolis, Ind.), weighing between 200 and 300 g were used in these studies. Under isoflurane anesthesia (to effect), animals were instrumented with common carotid artery and jugular vein catheters (PE-50 tubing). The catheters were exteriorized utilizing a subcutaneous tunnel to the subscapular area. All surgical incisions were sutured with 4-0 Ethicon Silk and the catheters locked with heparin (1000 units/mL). Each animal was administered saline (3 mL, SC) at the end of surgery as well as buprenorphine (0.05 mg/kg, IM). Animals were allowed to recover on a heating pad before being returned to their holding rooms.
Approximately 18 to 20 hours following surgery, the animals were weighed and the carotid artery catheter on each animal was connected to a transducer for recording arterial pressure. Arterial pressure and heart rate was recorded using a Biopac MP-100 Acquisition System. Animals were allowed to acclimate and stabilize for a period of 20 minutes.
Each animal was challenged with methylcholine (MCh) (0.3 mg/kg, iv) administer through the jugular venous line and the cardiovascular response was monitored for 10 minutes. […] At 1.5 and 24 h post-dosing, the animals were re-challenged with MCh (0.3 mg/kg, iv) and the hemodynamic response was determined. […]

The nature of data set [2]: Solid state stability assessment (HPLC). It counts as physicochemical. The procedure: Samples of the crystalline naphthalene-1,5-disulfonic acid salt of 2-[(S)-1-(8-methylaminooctyl)pyrrolidin-3-yl]-2,2-diphenylacetamide of Example 5, about 30 mg each, were stored in multiple 3 mL borosilicate vials at −20° C. (closed container), 40° C./75% RH (open and closed container), and at 80° C. (closed container). At specific intervals, the entire contents of a representative vial was analyzed by the following HPLC method:
Samples were prepared as 1 mg/mL solutions using 50% EtOH and 50% citrate buffer (10 mM pH 5 in normal saline). These solutions were then injected onto the HPLC.
The initial purity of the samples was 99.5% as determined by HPLC area percentage. […] (closed container) and 40° C./75% RH (open and closed container).

Data set [3] in a line: Solution state stability assessment (HPLC). The class given is physicochemical. Conditions: for change in purity (HPLC): 1 mg/mL and 0.1 mg/mL in normal saline, 10 mM citrate pH 5. The procedure: Samples of the crystalline naphthalene-1,5-disulfonic acid salt of 2-[(S)-1-(8-methylaminooctyl)pyrrolidin-3-yl]-2,2-diphenylacetamide of Example 5 were used to prepare an inhalation solution consisting of 1 mg/mL and 0.1 mg/mL salt in normal saline with 10 mM citrate buffer adjusted to pH 5. The resulting solutions were placed in 3 mL borosilicate vials and stoppered with Teflon grey plug stoppers. The solutions were then stored at −20° C., 5° C., 30° C., 60° C. The samples were analyzed according to the HPLC method described in Example 10. After approximately six months for the solutions stored at −20° C., 5° C., and 30° C. there was no detectable change in purity observed (less than 0.5%) for samples stored at 60° C. less than 5% change in purity was observed.

A short description of data set [4]: Dynamic moisture sorption assessment. It counts as physicochemical. As to conditions: for deliquescence: exposed to atmospheric moisture. The procedure: A dynamic moisture sorption (DMS) assessment (also known as a moisture sorption-desorption profile) was performed for a sample of a crystalline naphthalene-1,5-disulfonic acid salt of 2-[(S)-1-(8-methylaminooctyl)pyrrolidin-3-yl]-2,2-diphenylacetamide (prepared according to the procedure of Example 5) using a VTI atmospheric microbalance, SGA-100 system (VTI Corp., Hialeah, Fla. 33016). A sample size of approximately 10 mg was used and the humidity was set at the ambient value at the start of the analysis. A typical DMS analysis consisted of three scans: ambient to 2% RH, 2% RH to 90% RH, 90% RH to 5% RH at a scan rate of 5% RH/step. The mass was measured every two minutes and the RH was changed to the next value (+/−5% RH) when the mass of the sample was stable to within 0.01% for 5 consecutive points.
The salt has an acceptable 1.9% weight gain when it exposed to a broad humidity range from 2% RH up to 90% RH and it has a less than 1% weight gain in the humidity range of 40% RH to 75% RH.

A short description of data set [5]: Thermal analysis (DSC/TGA). The class given is physicochemical. As to conditions: heating ramp 5° C./min, ambient to about 300° C. The procedure:
Differential scanning calorimetry (DSC) was performed using a TA Instruments Model Q-10 module with a Thermal Analyst controller. Data were collected and analyzed using TA Instruments Thermal Solutions software. A sample of about 1 mg was accurately weighed into an aluminum pan with lid. The sample was evaluated using a linear heating ramp of 5° C./min from ambient temperature to approximately 300° C. The DSC cell was purged with dry nitrogen during use. A representative DSC trace for a sample of the crystalline naphthalene-1,5-disulfonic acid salt of 2-[(S)-1-(8-methylaminooctyl)pyrrolidin-3-yl]-2,2-diphenylacetamide of Example 5 is shown in FIG. 2.
Thermogravimetric analysis (TGA) was performed using a TA Instruments Model Q-50 module equipped with high resolution capability. Data were collected and analyzed using TA Instruments Thermal Solutions software. A sample weighing about 10 mg was placed onto a platinum pan and scanned with a high resolution-heating rate from ambient temperature to 300° C. The balance and furnace chambers were purged with nitrogen flows during use. A representative TGA trace for a sample of the crystalline naphthalene-1,5-disulfonic acid salt of 2-[(S)-1-(8-methylaminooctyl)pyrrolidin-3-yl]-2,2-diphenylacetamide of Example 5 is shown in FIG. 2.

Data set [6] is described as follows: Micronization with a jet mill, comparison with unmicronized material. The class given is physicochemical. Conditions: micronized compared to unmicronized material. From the text:
A sample of a crystalline naphthalene-1,5-disulfonic acid salt of 2-[(S)-1-(8-methylaminooctyl)pyrrolidin-3-yl]-2,2-diphenylacetamide (prepared according to the procedure of Examples 4 and 5) was micronized with a jet mill to give a free-flowing white powder with birefringence observed upon microscopic examination.

[7] abbreviates: solid, 3 months, all conditions.

Turning to `CNCCCCCCCCN1CC[C@@H](C(C(N)=O)(c2ccccc2)c2ccccc2)C1` [Example 1, 2-[(S)-1-(8-Methylaminooctyl)pyrrolidin-3-yl]-2,2-diphenylacetamide], in data set [1], the “apparent lung-selectivity index (ratio of anti-depressor ID50 to bronchoprotective ID50)” value is “greater than 5”.
`CNCCCCCCCCN1CC[C@@H](C(C(N)=O)(c2ccccc2)c2ccccc2)C1` [Example 5, 2-[(S)-1-(8-Methylaminooctyl)pyrrolidin-3-yl]-2,2-diphenylacetamide Naphthalene-1,5-disulfonic Acid Salt]: the “chemical degradation by HPLC” value in data set [2] (6 months storage at 40° C. and 75% relative humidity) is on record as “no detectable chemical degradation”; in data set [2] (storage for 28 days at 40° C. and 75% relative humidity) it was “less than 0.5%”. For the same compound, the “change in the appearance of the material” value in data set [2] (setting [7]) is listed as “no observable change”. For the same compound, the “differences by DSC and TGA” value in data set [2] (setting [7]) is listed as “no detectable differences”. The “change in chemical purity (HPLC)” value in data set [2] (solid, 3 months, all conditions: −20° C. closed, 40° C./75% RH open and closed, 80° C. closed) is “less than 0.5%”. The “chemical or physical differences” value in data set [2] (solid, 6 months at −20° C. (closed) and 40° C./75% RH (open and closed)) is listed as “no detectable chemical or physical differences”. The “change in purity (HPLC)” value in data set [3] (approximately six months at 60° C.) is on record as “less than 5%”; in data set [3] (approximately six months at −20° C., 5° C. and 30° C.) it was “less than 0.5%”. Further, the “change in pH values of solutions” value in data set [3] (inhalation solutions in normal saline, 10 mM citrate pH 5, approximately six months) is given as “no appreciable change”. Moreover, the “weight gain on exposure to humidity” value is 1.9% in data set [4] (2% RH up to 90% RH); “less than 2%” in data set [4] (2% RH up to 90% RH, listed as crystalline naphthalene-1,5-disulfonic acid salt of the compound of formula I); “less than 1%” in data set [4] (humidity range of 40% RH to 75% RH). The deliquescence entry in data set [4] was “not deliquescent”; in data set [4] (listed as crystalline naphthalene-1,5-disulfonic acid salt), “not to be deliquescent”. Also, in data set [4] (reversible sorption/desorption profile), the “hygroscopicity (moderate)” value is less than 5%. Moreover, the “thermal decomposition (DSC)” value in data set [5] is “no thermal decomposition below 200 °C”.
With `CNCCCCCCCCN1CC[C@@H](C(C(N)=O)(c2ccccc2)c2ccccc2)C1` [Example 14, naphthalene-1,5-disulfonic acid salt of 2-[(S)-1-(8-methylaminooctyl)pyrrolidin-3-yl]-2,2-diphenylacetamide], the “change in PXRD pattern, TGA trace, DSC trace, DMS trace, chemical purity, chiral purity and moisture content” value in data set [6] was “No change was observed”.
